Biological target: T1, acid ceramidase (Homo sapiens, UniProt Q13510)
T1 sequence (Q13510 22-395): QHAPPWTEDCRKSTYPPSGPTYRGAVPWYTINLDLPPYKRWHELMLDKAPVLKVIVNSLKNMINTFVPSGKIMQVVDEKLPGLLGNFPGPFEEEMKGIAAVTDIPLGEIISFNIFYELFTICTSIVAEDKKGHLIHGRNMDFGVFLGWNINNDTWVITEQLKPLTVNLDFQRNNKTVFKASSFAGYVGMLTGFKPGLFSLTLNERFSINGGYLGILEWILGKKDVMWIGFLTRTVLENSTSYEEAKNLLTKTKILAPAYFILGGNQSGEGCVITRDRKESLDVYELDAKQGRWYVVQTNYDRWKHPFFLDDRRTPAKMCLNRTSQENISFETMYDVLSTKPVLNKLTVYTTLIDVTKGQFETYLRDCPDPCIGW
Assay: Acid ceramidase fluorescent intensity assay with fluorogenic substrate Rbm 14-12
Assay type: biochemical
Details: cell lysates enriched with acid ceramidase; 1 hour preincubation; substrate Rbm 14-12 6.3 μM; pH 4.5; room temperature, 1 or two hours; read-out: average IC50 value for the 1 and 2 hour time points, inhibition of acid ceramidase activity
Description: Inhibition of acid ceramidase activity by compound 25 of Table 2 was evaluated in a fluorescent intensity assay using a fluorogenic substrate Rbm 14-12 […]. Compound 25 was incubated with cell lysates enriched with acid ceramidase for 1 hour in an assay buffer containing 50 mM NaOAc and 100 mM NaCl at pH 4.5. The reaction was initiated by the addition of the substrate at a final concentration of 6.3 μM and the mixture was incubated at room temperature for 1 or two hours. At the appropriate time, the reaction was quenched by the addition of methanol and treated with NaIO4 (fresh 2.5 mg/ml solution was made in 100 mM glycine/NaOH buffer, pH 10.6), followed by incubation for 1 hour at room temperature. Fluorescent intensity was measured using a plate reader at ex 355 nm and em 460 nm.

**Q.** How did the IC50 turn out when `O=C(NCCCCc1ccccc1)n1c(=O)oc2cc(-c3ccc(F)cc3)ccc21` [Compound 25, 6-(4-fluorophenyl)-2-oxo-N-(4-phenylbutyl)-1,3-benzoxazole-3-carboxamide] was run?
**A.** 250 to 500 nM

— patent US20180369210A1, “METHODS AND COMPOSITIONS FOR TREATING LYSOSOMAL STORAGE DISORDERS” (Lysosomal Therapeutics Inc., priority 2015, published 2018)
